{
  "source": "patent US12370181B2",
  "about": "“Regimens of estrogen receptor antagonists” (Olema Pharmaceuticals, Inc., priority 2019, dated 2025)",
  "key": {"[1]": {"system": "ligand-independent ER mutants", "experiment": "AP activity in Ishikawa cells transiently transfected with ER variants", "type": "cell-based, human", "conditions": "in the absence of E2; 3 days; FIGS. 5A-5F, 8A-8D", "protocol": "(§1) The present Example describes studies in which certain estrogen receptor constructs were transfected into Ishikawa cells, which are a human endometrial cancer cell line, endogenous alkaline phosphatase is assayed. 15,000 Ishikawa cells per well were plated into a 96-well plate in […] containing 5% stripped FBS. At the time of plating, cells in each well were transiently transfected with 75-100 ng of an estrogen receptor construct (or empty vector, pSG5) using Lipofectamine LTX (ThermoFisher Scientific). Approximately 4 hours later, cells were treated with indicated amount of anti-estrogen (in the absence of E2), or 500 pM E2 (FIG. 9), and media was diluted to 2.5% stripped FBS. Cells were incubated for 3 days, media removed, and plates frozen at −80° C. […] After 40-80 minutes at 40° C., absorbance was read at 405 nm."}, "[2]": {"conditions": "in vivo, po, 300 mg/kg"}, "endogenous wild type ER": {"biological_target": "T1, endogenous wild type ER (Homo sapiens, UniProt P03372)", "T1 construct": "AP activity of endogenous wild type ER in un-transfected Ishikawa cells; endogenous in cells; host or cells: Ishikawa cells (un-transfected)", "T1 sequence (P03372 1-595)": "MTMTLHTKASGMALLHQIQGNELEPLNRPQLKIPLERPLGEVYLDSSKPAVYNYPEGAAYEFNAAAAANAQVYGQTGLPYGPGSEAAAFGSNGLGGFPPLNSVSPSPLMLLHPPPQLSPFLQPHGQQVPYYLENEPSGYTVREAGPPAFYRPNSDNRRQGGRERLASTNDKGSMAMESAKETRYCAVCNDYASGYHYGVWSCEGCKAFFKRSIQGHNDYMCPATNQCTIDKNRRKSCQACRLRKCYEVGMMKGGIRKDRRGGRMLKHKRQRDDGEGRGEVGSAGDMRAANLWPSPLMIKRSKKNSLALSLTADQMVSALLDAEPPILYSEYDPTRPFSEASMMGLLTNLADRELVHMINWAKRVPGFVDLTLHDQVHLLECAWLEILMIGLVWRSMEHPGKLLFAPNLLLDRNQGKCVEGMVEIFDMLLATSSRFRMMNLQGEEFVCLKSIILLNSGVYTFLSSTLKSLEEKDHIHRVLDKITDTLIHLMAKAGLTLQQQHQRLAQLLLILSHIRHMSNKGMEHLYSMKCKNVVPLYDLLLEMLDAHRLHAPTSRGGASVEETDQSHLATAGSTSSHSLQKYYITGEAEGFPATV", "experiment": "Alkaline phosphatase (AP) activity of endogenous wild type ER in un-transfected Ishikawa cells, agonist and antagonist mode", "type": "cell-based", "protocol": "as §1\nAP activity of endogenous wild type ER in un-transfected Ishikawa cells was assayed as described above."}},
  "data": [
    {"smiles": "CC/C(=C(/c1ccc(/C=C/C(=O)O)cc1)c1ccc2[nH]ncc2c1)c1ccc(F)cc1Cl", "note": "[ARN-810, Brilanestrant]", "values": [
      {"measurement": "Inhibition of activity of ligand-independent ER mutants (AP activity)", "setting": "[1]", "result": "none of Endoxifen, RAD-1901, ARN-810 (GDC-0810) or AZD-9496 can inhibit activity of the ligand-independent ER variants"}
    ]},
    {"smiles": "C[C@]12CC[C@@H]3c4ccc(O)cc4C[C@@H](CCCCCCCCC[S+]([O-])CCCC(F)(F)C(F)(F)F)[C@H]3[C@@H]1CC[C@@H]2O", "note": "(stereo partly drawn) [Fulvestrant]", "values": [
      {"measurement": "Blood brain barrier penetration", "setting": "[2]", "result": "unable to penetrate the blood-brain barrier in analogous quantities"}
    ]},
    {"smiles": "CCNCCc1ccc(CN(CC)c2cc(OC)ccc2[C@@H]2CCc3cc(O)ccc3C2)cc1", "note": "[RAD-1901, Elacestrant]", "values": [
      {"measurement": "Inhibition of activity of ligand-independent ER mutants (AP activity)", "setting": "[1]", "result": "none of Endoxifen, RAD-1901, ARN-810 (GDC-0810) or AZD-9496 can inhibit activity of the ligand-independent ER variants"}
    ]},
    {"smiles": "C[C@@H]1Cc2c([nH]c3ccccc23)[C@@H](c2c(F)cc(/C=C/C(=O)O)cc2F)N1CC(C)(C)F", "note": "[AZD-9496]", "values": [
      {"measurement": "Inhibition of activity of ligand-independent ER mutants (AP activity)", "setting": "[1]", "result": "none of Endoxifen, RAD-1901, ARN-810 (GDC-0810) or AZD-9496 can inhibit activity of the ligand-independent ER variants"},
      {"measurement": "Agonist activity (ER activity, AP)", "setting": "endogenous wild type ER; agonist mode: compound alone, no added estrogen, FIG. 1A", "result": "increases ER activity in the absence of added estrogen"},
      {"measurement": "Antagonist activity (ER activity, AP)", "setting": "endogenous wild type ER; antagonist mode: in the presence of 500 pM 17β-estradiol (E2), FIG. 1B", "result": "reducing ER activity when estrogen is there"}
    ]}
  ]
}
